From patent US11207285B2, “Diabetes treatment regimens using alpha, alpha-substituted long-chain amphipathic carboxylates” (SYNDROMEX LTD., priority 2016, dated 2021)
Values joined by “and” are separate entries in the source; they are usually repeats but may differ in a detail not shown here. Identical values can stand only once.

Assays:
[1] = test system: mitochondrial permeability transition pore (PTP); experiment: gating of mitochondrial PTP; details: mild decoupling of mitochondrial oxidative phosphorylation
half-life in rats = details: rat, in vivo, read-out: half-life (T1/2) (converted)
From the text: The half-life (T1/2) of Medica compounds in humans differs considerably from their half-life in model animals. […] This difference in half-life could not be expected, and is of considerable significance when designing a new treatment protocol for humans.

[2] = test system: Type 2 Diabetes Mellitus (T2D) patients; experiment: 4-week M16αα study in T2D patients, efficacy; type: in vivo, human; details: for Comp ISI / HP ISI / HbA1c Day 90 - extrapolated / IR / HbA1c Day 28: after
From the text: Exploratory, double-blind, randomized, placebo-controlled study, to evaluate the safety, efficacy and pharmacokinetics of 4-week M16αα treatment of Type 2 Diabetes Mellitus (T2D) patients. T2D patients were either non-treated or receiving ongoing treatment with metformin alone or in combination with other standard-of-care (SoC) oral or parenteral antidiabetic drug/s. T2D patients, non-treated or treated with SoC antidiabetic drugs as outlined below, were screened for eligibility (inclusion/exclusion according to criteria detailed below), followed by being randomly allocated to receive once daily either add-on M16αα (40 mg M16αα plus 130 mg microcrystalline cellulose in gelatin capsules) or add-on placebo (130 mg microcrystalline cellulose in gelatin capsules), in addition to the SoC anti-diabetic treatment they have been receiving regularly. One patient was not under SoC anti-diabetic drug treatment. Sixteen (16) patients were randomized to M16αα treatment and 3 patients were randomized to placebo treatment. Patients randomized to M16αα treatment were dosed for 28 days with add-on M16αα in double-blinded manner, followed by 4-week recovery period using add-on placebo in a single-blinded manner. Patients randomized to placebo treatment were dosed for 28 days with add-on placebo in double-blinded manner. Cohort 1 included 6 uncontrolled T2D patients (HbA1c>7.3%), 5 treated for their hyperglycemia by metformin only (patients 101, 102, 103, 105, 106), and one naïve patient (not under SoC anti-diabetic treatment, patient 108). Cohort 2 included 6 T2D patients (HbA1c>7.3%) (patients 202, 203, 205, 206, 207, 210) treated for their hyperglycemia by a variety of SoC anti-diabetic drug/s except insulin/insulin analogs (metformin plus sulphonylurea and/or DPP4 inhibitor and/or GLP1 analog and/or SGLT2 inhibitor). Cohort 3 included 4 T2D patients (HbA1c>7.3%) treated for their hyperglycemia by basal insulin analogs and a variety of anti-diabetic drugs (metformin and/or sulphonylurea and/or DPP4 inhibitor and/or GLP1 analog and/or SGLT2 inhibitor). During the study period the subjects underwent physical examination, clinical pathology, hematology, urinalysis, lipid profile, HbA1C, continuous glucose monitoring (CGM) and an oral glucose tolerance test (OGTT) (75 g glucose; glucose, insulin, c-peptide; 0, 30, 60, 120, 180 min) prior to dosing, upon end of M16αα treatment, and following the recovery period (EOS visit). HbA1c, Continuous glucose monitoring (CGMS), OGTT (Glucose/Insulin/C-peptide), HOMA, Hepatic Insulin Sensitization Index (HP ISI), Composite insulin sensitization index (Comp ISI), Insulin resistance (IR), plasma lipid profile (Triglycerides, Cholesterol, LDL-C, VLDL-C, HDL-C, non-HDL-C, apoB), hsCRP, Fibrinogen. All measured variables and derived parameters were listed individually and tabulated by descriptive statistics. For descriptive statistics summary tables were provided giving sample size, means, standard deviations and 95% CI (Confidence Interval) or frequency with percentage according to the scale of the variable. Regarding small sample size, non-parametric methods were conducted: Differences between end of drug dosing and baseline for each efficacy parameter were analyzed using the Wilkcoxon matched-pairs signed-ranks test. Differences between M16αα-treated and placebo groups were analyzed for each efficacy parameter using the Mann-Whitney two-sample U-test. Drug: 40 mg 2,2,15,15-tetramethylhexadecane-dioic acid (M16αα) per day, in a gelatin capsule. This daily dose of M16αα is based on safety and PK considerations in a previous, single-dose study in healthy volunteers and pre-clinical data. Administration: oral, before breakfast, with 240 ml water, for both drug and placebo. M16αα or placebo were administered orally for 28 consecutive days, followed by additional 28 days of placebo. End of Study (EOS) visit took place about 4 weeks after last dose of M16αα administered. […]

rats = details: WO98/30530, cited from earlier work
[3] = Cohort 1 single patients 101, 102, 106 on metformin only, add-on 40 mg/day
[4] = Cohort 2 single patients 202, 205, 206 on SoC drugs except insulin, add-on 40 mg/day
[5] = Cohort 3 single patients 301-304 on basal insulin analogs and other drugs, add-on 40 mg/day
[6] = patient 108, no ongoing anti-diabetic treatment, 40 mg/day
[7] = baseline 1.0, all patients on add-on M16αα
[8] = estimated by linear extrapolation from 28 d
[9] = weighted average, all patients on add-on M16αα

- half-life (half-life in rats): 2.4 ± 0.6 h
SMILES: CC(C)(CCCCCCCCCCCCC(C)(C)C(=O)O)C(=O)O [M16αα, 2,2,15,15-tetramethyl-hexadecane-1,16-dioic acid]
- gating of mitochondrial PTP [1]: induces low-conductance gating of mitochondrial PTP
- Continuous glucose monitoring [CGM(<180 mg %)], Change in Baseline: Increase by ([2]; % of time with glucose lower than 180 mg %, baseline 71 ± 25%): Increase by 8.4%
- insulin sensitizing activity compared with add-on pioglitazone ([2]; M16αα added-on to metformin): surpasses that reported for add-on Pio
- diabetic profile ([2]; T2D patient not under anti-diabetic SoC, low dose): significantly improved diabetic profile
- prospective glucose-lowering activity compared with SoC oral anti-diabetic drugs ([2]; add-on M16αα): surpasses those reported for current SoC oral anti-diabetic drugs
- Comp ISI [2, 3]: 19.17 and 5.0 and 10.10
- HP ISI [2, 3]: 9.5 and 2.3 and 2.1
- HbA1c Day 90 - extrapolated [2, 3]: 5.3 and 5.9 and 5.4
- IR [2, 3]: 0.4 and 0.6 and 0.5
- HbA1c Day 28 ([2]; Cohort 1 single patients 101, 102, 106 on metformin only, add-on 40 mg/day oral 28 d): 6.7 and 6.9 and 6.8
- Comp ISI [2, 4]: 2.2 and 4.7 and 5.5
- HP ISI [2, 4]: 0.4 and 0.6 and 1.1
- HbA1c Day 90 - extrapolated [2, 4]: 6.0 and 8.1 and 4.1
- IR [2, 4]: 2.2 and 1.8 and 0.9
- HbA1c Day 28 ([2]; Cohort 2 single patients 202, 205, 206 on SoC drugs except insulin, add-on 40 mg/day oral 28 d): 6.8 and 8.1 and 7.1
- Comp ISI [2, 5]: 4.6 and 6.9 and 6.3
- HP ISI [2, 5]: 0.79 and 0.88 and 1.33 and 1.41
- IR [2, 5]: 1.4 and 1.1 and 0.8 and 0.7
- HbA1c Day 28 ([2]; Cohort 3 single patients 301-304 on basal insulin analogs and other drugs, add-on 40 mg/day oral 28 d): 8.17 and 7.33 and 7.52 and 8.73
- Comp ISI [2, 6]: 5.8
- HP ISI [2, 6]: 1.6
- HbA1c Day 90 - extrapolated [2, 6]: 7.6
- IR [2, 6]: 0.6
- HbA1c Day 28 ([2]; patient 108, no ongoing anti-diabetic treatment, 40 mg/day oral 28 d): 7.6
- Composite insulin sensitization index (CompISI), Change in Baseline: Increase by [2, 7]: Increase by 2.04-fold
- HOMA insulin resistance (HOMAIR), Change in Baseline: Increase by [2, 7]: Increase by 0.59-fold
- Hepatic insulin sensitization index (HepISI), Change in Baseline: Increase by [2, 7]: Increase by 2.50-fold
- HOMA % B, Change in Baseline: Decrease by ([2]; baseline 1.0, beta-cell rest): Decrease by 0.81-fold
- Bodyweight, Change in Baseline: Decrease by ([2]; baseline 88 ± 9 kg): Decrease by 0.6 kg
- Σglucose (OGTT 0, 30, 60, 120, 180 min), Change in Baseline: Decrease by ([2]; baseline 100, all patients on add-on M16αα): Decrease by 7.8%
- Σc-peptide (OGTT 0, 30, 60, 120, 180 min), Change in Baseline: Decrease by ([2]; baseline 100, beta-cell rest): Decrease by 17%
- Hypertension, Change in Baseline ([2]; baseline 136 ± 13/75 ± 7): Decrease in 5 patients
- Fasting blood glucose (FBG), Change in Baseline: Decrease by ([2]; baseline 159 ± 56 mg/dL, all patients on add-on M16αα): Decrease by 11.7%
- Plasma triglycerides, Change in Baseline: Decrease by ([2]; baseline 169 ± 95 mg/dL): Decrease by 18%
- HbA1C (%) (Estimated 90 d), Change in Baseline: Decrease by [2, 8]: Decrease by 0.96-1.44%
- HbA1C (Estimated 90 d), Change in Baseline: Decrease [2, 8]: (10.6-15.8 mmol/mol)
- HbA1C (Estimated 90 d), Change in Baseline: Decrease as eAG [2, 8]: (eAG 28-42 mg/dL)
- effectiveness as add-on drug ([2]; patients under anti-diabetic SoC): effective as an add-on drug
- HbA1C (28 d), Change in Baseline: Decrease [2, 9]: (5.28 mmol/mol)
- HbA1C (28 d), Change in Baseline: Decrease as eAG [2, 9]: (eAG 14 mg/dL)
- HbA1C (%) (28 d), Change in Baseline: Decrease by ([2]; weighted average, all patients on add-on M16αα 40 mg/day, baseline 7.96 ± 0.81): Decrease by 0.48%
- plasma lipids (rats; hyperlipidemic animal models): normalization of plasma lipids
- plasma triglycerides and cholesterol (rats; normolipidemic animals): decrease in plasma triglycerides and cholesterol
- hypolipidemic activity (rats; rats): potent hypolipidemic agent
